Measurements reported in US4877893A, “Process for the preparation of 2-(O-alkyl)-2-thio-1,3,2-oxathiophospholanes” (priority 1987, dated 1989).

Experiments:
Experiment in all cases: Fungicidal effect on infected agar nutrient media, colony diameter
Format in all cases: cell-based
Sclerotinia sclerotinia = conditions: 3rd day after treatment, untreated control 41.7
Method: Agar nutrient media (Diameter 70 MM, thickness 10 mm) infected by Sclerotonia sclerotinia suspension are treated with 20 EC formulations prepared according to Example 27 and comprising 1, 10, 100 and 1000 ppm, respectively of the active ingredient of the Formula I. The fungicidal effect of the compositions is evaluated on the 3rd day after treatment by measuring the diameter of the Fungi colonies.

Penicillium cyclopium = conditions: 7th day after treatment, untreated 26.5
Summary of the method: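 Agar media (70 mm diameter, 10 mm thick) infected with Penicillium cyclopium were treated with EC formulations at 1, 10, 100 and 1000 ppm active ingredient. Fungal colony diameter was measured on day 7 after treatment.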

Alternaria tenuis = conditions: 5th day after treatment, untreated control 36.8
Summary of the method: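 Agar media (70 mm diameter, 10 mm thick) infected with Alternaria tenuis, treated with EC formulations at 1, 10, 100 and 1000 ppm active ingredient. Fungicidal effect read on day 5 after treatment as fungal colony diameter.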

Structure (SMILES)	Diameter of colony (mm) (Sclerotinia sclerotinia; 1 ppm)	Diameter of colony (mm) (Sclerotinia sclerotinia; 10 ppm)	Diameter of colony (mm) (Sclerotinia sclerotinia; 100 ppm)	Diameter of colony (mm) (Sclerotinia sclerotinia; 1000 ppm)	Diameter of colony (mm) (Penicillium cyclopium; 1 ppm)	Diameter of colony (mm) (Penicillium cyclopium; 10 ppm)	Diameter of colony (mm) (Penicillium cyclopium; 100 ppm)	Diameter of colony (mm) (Penicillium cyclopium; 1000 ppm)	Diameter of colony (mm) (Alternaria tenuis; 1 ppm)	Diameter of colony (mm) (Alternaria tenuis; 10 ppm)	Diameter of colony (mm) (Alternaria tenuis; 100 ppm)	Diameter of colony (mm) (Alternaria tenuis; 1000 ppm)
CCCCOP1(=S)OC(C)CS1 (stereo not drawn) [Compound 60, 2-(0-n-butyl)-2-thio-5-methyl-1,3,2-oxathiophospholane]	33.7 mm	30.0 mm	3.8 mm	0 mm	23.6 mm	19.9 mm	8.2 mm	0 mm	33.3 mm	25.5 mm	6.8 mm	0 mm
CCCCOP1(=S)OCC(C)S1 (stereo not drawn) [Compound 61, 2-(0-n-butyl)-2-thio-4-methyl-1,3,2-oxathiophospholane]	35.6 mm	28.9 mm	2.7 mm	0 mm	24.0 mm	19.0 mm	8.3 mm	0 mm	36.2 mm	24.3 mm	6.2 mm	0 mm
CCCC(C)OP1(=S)OCCS1 (stereo not drawn) [Compound 62, 2-(0-1'-methyl-n-butyl)-2-thio-1,3,2-oxathiophospholane]	37.0 mm	30.2 mm	3.9 mm	0 mm	26.1 mm	20.2 mm	7.4 mm	0 mm	34.1 mm	25.7 mm	6.9 mm	0 mm
CCCCOP1(=S)OC(C)C(C)S1 (stereo not drawn) [Compound 63, 2-(0-n-butyl)-2-thio-4,5-dimethyl-1,3,2-oxathiophospholane]	34.2 mm	29.9 mm	3.1 mm	0 mm	24.8 mm	18.5 mm	8.5 mm	0 mm	35.0 mm	24.2 mm	6.7 mm	0 mm
CCCCOP1(=S)OC(C)CS1 (stereo not drawn) [Compound 64]	36.9 mm	28.7 mm	3.0 mm	0 mm	26.0 mm	20.0 mm	8.7 mm	0 mm	34.6 mm	26.1 mm	4.5 mm	0 mm
CCCCC(C)OP1(=S)OC(C)C(C)S1 (stereo not drawn) [Compound 65]	35.8 mm	30.1 mm	3.7 mm	0 mm	24.6 mm	19.1 mm	7.5 mm	0 mm	33.8 mm	25.3 mm	6.6 mm	0 mm
CCCC(C)OP1(=S)OC(C)C(C)S1 (stereo not drawn) [Compound 66]	34.8 mm	28.8 mm	4.0 mm	0 mm	25.0 mm	18.6 mm	7.5 mm	0 mm	34.5 mm	24.4 mm	7.0 mm	0 mm
